Assays:
[1] = tested on: Bacillus subtilis strain NBRC3134; assay: Deodorizing component emission test by microorganism; type: cell-based; details: GC/MS head space peak area minus control; 10 mg in 3 mL culture solution, 30° C. 20 hours; released: hexenal (2-2), citronellal (2-3)
Procedure: (§1) Culture of Staphylococcus aureus strain NBRC12732, Staphylococcus epidermidis strain JCM2414T, Corynebacterium xerosis strain JCM1324, Pseudomonas aeruginosa strain NBRC13275, Bacillus subtilis strain NBRC3134, and Moraxella osloensis strain ATCC19976:
(§2) After inoculating each of bacteria in Muller-Hinton liquid medium, shaking culture was performed at 30° C. for 20 hours. 3 mL of the resulting preculture solution was transferred to a vial bottle, and 10 mg of each of the compounds of Examples 2-2 to 2-6 was mixed, followed by hermetically sealing the bottle. Thereafter, shaking culture was further performed at 30° C. for 20 hours.
(§3) A peak area of the deodorizing compound was obtained by performing GC/MS analysis of the head space component contained in the vial bottle having 3 mL of microorganism culture solution in which 10 mg of each of the compound of Examples 2-2 to 2-6 was mixed. A microorganism culture solution having not mixed therein each of the compounds of Examples 2-2 to 2-6 was used as the control, and a peak area of the control was obtained by the same method as above.
(§4) The difference between the peak area of the deodorizing compound and the peak area of the control was calculated as the deodorizing component emission amount, and the results are shown in Tables 10 to 12.
(§5) • Measuring apparatus: 7890GC/5975MSD (manufactured by Agilent Technologies) • Column: BC-WAX 50 m×0.25 mm I.D. • Temperature rise: 70° C.→220° C., 4° C./min • Split ratio: splitless

[2] = tested on: Corynebacterium xerosis strain JCM1324; assay: as above; type: cell-based; details: GC/MS head space peak area minus control; 10 mg in 3 mL culture solution, 30° C. 20 hours; released: hexenal (2-2), citronellal (2-3)
Procedure: as §1, §2, §3, §4, §5

[3] = tested on: Moraxella osloensis strain ATCC19976; assay: as above; type: cell-based; details: GC/MS head space peak area minus control; 10 mg in 3 mL culture solution, 30° C. 20 hours; released: hexenal (2-2), citronellal (2-3)
Procedure: as §1, §2, §3, §4, §5

[4] = tested on: Pseudomonas aeruginosa strain NBRC13275; assay: as above; type: cell-based; details: GC/MS head space peak area minus control; 10 mg in 3 mL culture solution, 30° C. 20 hours; released: hexenal (2-2), citronellal (2-3)
Procedure: as §1, §2, §3, §4, §5

[5] = tested on: Staphylococcus aureus strain NBRC12732; assay: as above; type: cell-based; details: GC/MS head space peak area minus control; 10 mg compound in 3 mL culture solution, 30° C. 20 hours; released: citronellal (2-3), 2,6-dimethyl-5-heptenal (2-4), trimethylhexanal (2-5), octanal (2-6)
Procedure: as §1, §2, §3, §4, §5

[6] = tested on: Staphylococcus epidermidis strain JCM2414T; assay: as above; type: cell-based; details: GC/MS head space peak area minus control; 10 mg in 3 mL culture solution, 30° C. 20 hours; released: hexenal (2-2), citronellal (2-3)
Procedure: as §1, §2, §3, §4, §5

[7] = tested on: Propionibacterium acnes strain JCM6473; assay: as above; type: cell-based; details: GC/MS head space peak area minus control; 10 mg in 3 mL culture solution, static culture 28° C. 3 days; released: hexenal (2-2), citronellal (2-3)
Procedure: (§6) After inoculating bacteria in GAM bouillon liquid medium containing Hemin 0.5 ppm and Menadione 0.5 ppm, static culture was performed at 28° C. for 3 days under anaerobic conditions. 3 mL of the resulting preculture solution was transferred to a vial bottle, and 10 mg of each of the compounds of Examples 2-2 to 2-6 was mixed, followed by hermetically sealing the bottle. Thereafter, static culture was further performed at 28° C. for 3 days.
as §3, §4, §5

[8] = molecular target: T1, lipase preparation Lipex 100 L produced by Novozymes (Thermomyces lanuginosus, UniProt O59952, N255R/T253R); assay: LIPASE-induced fragrance emission test (Lipex 100 L); type: biochemical; details: GC/MS head space peak area of released compound minus water control; 10 mg compound in 1 g aqueous 1% Lipex 100L; released: menthone (1-1), hexenal (1-2), citral (1-3)
T1 construct: purchased Novozymes Lipex 100 L
T1 sequence (O59952 23-291 T253R/N255R): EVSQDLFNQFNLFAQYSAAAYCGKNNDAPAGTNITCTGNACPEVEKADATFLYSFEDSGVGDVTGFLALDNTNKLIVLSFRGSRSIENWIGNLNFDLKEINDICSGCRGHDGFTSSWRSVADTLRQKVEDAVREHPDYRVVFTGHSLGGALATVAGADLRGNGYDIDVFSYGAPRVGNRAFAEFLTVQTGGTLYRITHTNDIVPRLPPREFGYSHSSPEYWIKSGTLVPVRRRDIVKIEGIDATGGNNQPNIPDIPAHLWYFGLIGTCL
Procedure: (§7) 10 mg of each of the compounds of Examples 1-1 to 1-3 and 1 g of an aqueous 1% lipase preparation solution were charged in a vial bottle and mixed and after hermetically sealing the bottle, the mixture was subjected to GC/MS analysis of the head space component to obtain a peak area of the fragrance emitting compound. As a control, water was used in place of the aqueous 1% lipase preparation solution, and the peak area of the control was obtained by the same method.
(§8) The fragrance emission amount was determined from the difference between the peak area of the obtained fragrance emitting compound and the peak area of the control. As the lipase preparation, Lipex 100 L produced by Novozymes, and AY “Amano” 30SD produced by Amano Enzyme Inc. were used.
(§9) • Measuring apparatus: 7890GC/5975MSD (manufactured by Agilent Technologies) • Column: BC-WAX 50 m×0.25 mm I.D. • Temperature rise: 70° C.→220° C., 4° C./min • Split ratio: 60:1

[9] = tested on: lipase preparation AY "Amano" 30SD produced by Amano Enzyme Inc.; assay: LIPASE-induced fragrance emission test (AY "Amano" 30SD); type: biochemical; details: GC/MS head space peak area of released citral minus water control; 10 mg compound in 1 g aqueous 1% AY "Amano" 30SD
Procedure: as §7, §8, §9

[10] = tested on: Malassezia furfur strain NBRC0656; assay: Deodorizing component emission test by microorganism; type: cell-based; details: GC/MS head space peak area of trimethylhexanal minus control; 10 mg in 3 mL culture solution, static culture 28° C. 3 days
Procedure: as §6, with “Sabouraud” for “GAM bouillon”, “0.1% Tween 80,” for “Hemin 0.5 ppm and Menadione 0.5 ppm,”
as §3, §4, §5

CC(C)=CCCC(C)C=COC(=O)c1ccccc1 (stereo not drawn) [Example 2-3, 3,7-dimethylocta-1,6-dienyl Benzoate]
Deodorizing component emission amount [1]: 66,939,425
Deodorizing component emission amount [2]: 692,091,257
Deodorizing component emission amount [3]: 25,608,586
Deodorizing component emission amount [4]: 42,891,551
Deodorizing component emission amount [5]: 1,064,240,572
Deodorizing component emission amount [6]: 76,886,509
Deodorizing component emission amount [7]: 15,450,553

CCC=CC=COC(=O)c1ccccc1 [Example 1-2, 1,3-hexadienyl Benzoate]
Fragrance emission amount [8]: 12,076,381
Deodorizing component emission amount [1]: 106,596,512
Deodorizing component emission amount [2]: 15,168,728
Deodorizing component emission amount [3]: 8,864,491
Deodorizing component emission amount [4]: 10,638,380
Deodorizing component emission amount [6]: 17,179,106
Deodorizing component emission amount [7]: 3,265,759

CC(C)=CCC=C(C)C=COC(=O)c1ccccc1 [Example 1-3, 3,7-dimethylocta-1,3,6-trienyl Benzoate]
Fragrance emission amount [8]: 5,098,870
Fragrance emission amount [9]: 16,031,669

CC(C=COC(=O)c1ccccc1)CC(C)(C)C (stereo not drawn) [Example 2-5, 3,5,5-trimethyl-1-hexenyl Benzoate]
Deodorizing component emission amount [5]: 189,916,125
Deodorizing component emission amount [10]: 19,153,037

CCCCCCC=COC(=O)c1ccccc1 [Example 2-6, 1-octenyl Benzoate]
Deodorizing component emission amount [5]: 129,928,279

CC(C)C1=C(OC(=O)c2ccccc2)C[C@H](C)CC1 [Example 1-1, 2-isopropyl-5-methyl-1-cyclohexenyl Benzoate]
Fragrance emission amount [8]: 76,407,359

CC(C)=CCCC(C)=COC(=O)c1ccccc1 [Example 2-4, 2,6-dimethylhepta-1,5-dienyl Benzoate]
Deodorizing component emission amount [5]: 132,554,000
